In brackets after ≈: the same amount, converted by molar mass. Read-outs that look alike come from different tables or passages of the source.
Assays:
[1] = test system: P388; details: IP, Q1D × 9, female mice
[2] = test system: 60 human tumor cell lines; assay: NCI in vitro primary screen, panel of 60 human tumor cell lines; type: cell-based; details: for GI50: Homo sapiens
Excerpt: Only two hundred years ago, many diseases ravaged humankind. Many of these diseases now have been controlled or eradicated. In the development of the means to treat or control these diseases, work with the appropriate common experimental animals was of critical importance. With the various types of cancers, and with the HIV virus, such work is presently ongoing. The research for the treatment of various types of cancer is coordinated in the United States by the National Cancer Institute (NCI). NCI, as a government entity, has been charged with assisting anti-cancer research. To establish whether a substance has anti-cancer activity, NCI has established a variety of protocols, one of which involves testing the candidate substance against a cell line panel containing 60 human tumor cell lines. This protocol has been verified and is generally accepted throughout the scientific community. This protocol and the established statistical means of evaluating the results obtained therefrom have been fully described in the literature. See Principles & Practice of Oncology PPO Updates, Volume 3, Number 10, October 1989, by Michael R. Boyd, M.D., Ph.D., for an in depth description of the test protocol. The statistical analysis is explained in "Display and Analysis of Patterns of Differential Activity of Drugs Against Human Tumor Cell Lines: Development of Means Graph and COMPARE Algorithm" Journal of the National Cancer Institute Reports Vol. 81, No. 14, Pg. 1088, Jul. 14, 1989, by K. D. Paull et al. Both of these references are incorporated herein by this reference thereto. The effectiveness and validity of the NCI in vitro protocol continues to be verified.
^a All compounds were tested in quadruplicate at five different con-
entire panel of 60 human tumor cell lines comprising the NCI
^c Correlation coefficients from the Compare pattern-recognition
algorithm were calculated by computer using the TGI-centered
mean graph profiles of differential cellular sensitivities to 1, and
5. The TGI mean graph profile of 1 was used as the benchmark or
"seed" for all of the comparisons.

[3] = test system: 60 human tumor cell lines; details: Background on spongistatins from Spongia sp; cited from earlier work
[4] = test system: P388 lymphocytic leukemia cell line; assay: P388 lymphocytic leukemia cell line bioassay; type: cell-based; details: Mus musculus; PS (P388); pure compound; read-out: ED50 (the source's name)

SMILES | % ILS (increase in life span over controls) ([1]; 40 μg/kg/dose) | potency in NCI panel [3] | IC50 [4] [ng/mL] | also measured
C=C(Cl)/C=C/C(O)CC(=C)CC1OC2C(C)C(OC(=O)CC3CC(OC(C)=O)CC4(CC(C)(O)CC(CC(=C)C(C)C(OC(C)=O)C(C)C(=O)CC5CC(OC)CC6(CC(O)CC(/C=C\CCCC7OC(O)(CC(O)C7C)C2O)O6)O5)O4)O3)C1O (stereo not drawn) [spongistatin 1, reference compound] | -10% | one of the most extraordinarily potent substances presently known | – | % ILS (increase in life span over controls) ([1]; 25 μg/kg/dose): +33%; GI50 ([2]; NCI 60 cell line panel, read-out: panel mean GI50): 0.1 nM; GI50 ([2]; quadruplicate, five concentrations, standard errors averaged less than 15% of means, read-out: Mean Panel GI50): 0.117 nM; Compare Correlation Coefficient ([2]; TGI-centered mean graph profiles, spongistatin 1 as seed): 1.00; correlation of mean-graph fingerprint with microtubule-interactive antimitotics ([2]; pattern-recognition analyses, data not shown): closely correlated
C=C(Cl)/C=C/[C@H](O)CC(=C)C[C@H]1OC2[C@@H](O)[C@]3(O)C[C@@H](O)[C@H](C)[C@H](CCC/C=C\[C@@H]4C[C@@H](O)C[C@]5(C[C@H](OC)CC(CC(=O)[C@@H](C)[C@H](OC(C)=O)[C@@H](C)C(=C)C[C@@H]6C[C@@](C)(O)C[C@]7(C[C@H](O)CC(CC(=O)O[C@@H]([C@@H]1O)[C@H]2C)O7)O6)O5)O4)O3 [spongistatin 3] | – | exceptionally potent | – | –
C=C(Cl)/C=C/[C@H](O)CC(=C)C[C@H]1OC2[C@@H](O)[C@]3(O)C[C@@H](O)[C@H](C)[C@H](CCC/C=C\[C@@H]4C[C@@H](O)C[C@]5(C[C@H](OC)CC(CC(=O)[C@@H](C)[C@H](O)[C@@H](C)C(=C)C[C@@H]6C[C@@](C)(O)C[C@]7(C[C@H](OC(C)=O)CC(CC(=O)O[C@@H]([C@@H]1O)[C@H]2C)O7)O6)O5)O4)O3 [spongistatin 4] | – | – | – | % ILS (increase in life span over controls) ([1]; 5 μg/kg/dose): +55%
C=C/C=C/C(O)CC(=C)CC1OC2C(C)C(OC(=O)CC3CC(OC(C)=O)CC4(CC(C)(O)CC(CC(=C)C(C)C(O)C(C)C(=O)CC5CC(OC)CC6(CC(O)CC(/C=C\CCCC7OC(O)(CC(O)C7C)C2O)O6)O5)O4)O3)C1O (stereo not drawn) [spongistatin 6] | +70% | – | – | –
C=C/C=C/C(O)CC(=C)CC1OC2C(C)C(OC(=O)CC3CC(OC(C)=O)CC4(CC(C)(O)CC(C=C5COC(C(C)C(=O)CC6CC(OC)CC7(CC(O)CC(/C=C\CCCC8OC(O)(CC(O)C8C)C2O)O7)O6)C5C)O4)O3)C1O (stereo not drawn) [spongistatin 8] | – | – | 0.8 (≈ 0.698 nM) | –
C=C(Cl)/C=C/C(O)CC(=C)CC1OC2C(C)C(OC(=O)CC3CC(OC(C)=O)CC4(CC(C)(O)CC(C=C5COC(C(C)C(=O)CC6CC(OC)CC7(CC(O)CC(/C=C\CCCC8OC(O)(CC(O)C8C)C2O)O7)O6)C5C)O4)O3)C1O (stereo not drawn) [spongistatin 9] | – | – | < 0.1 | –
